Assay results reported in patent publication US8497283B2, “Autotaxin inhibitors” (Merck Patent GmbH, priority 2009, dated 2013).

molecular target: T1, recombinant autotaxin (Homo sapiens, UniProt Q13822); experiment: Autotaxin assay (Amplex Red fluorescence, LPC substrate); assay type: biochemical; conditions: percent of uninhibited control (100%) at 1E−05 M compound
T1 construct: made in house; host or cells: Hi5 insect cells (baculovirus)
Description: Autotaxin activity is measured indirectly by means of Amplex Red Reagent. In this course, Amplex Red is measured as fluorogenic indicator for generated H2O2. Autotaxin converts substrate lysophosphatidylcholine (LPC) to phosphocholine and lysophosphatidylic acid (LPA). After the conversion phosphocholine is reacted with alkaline phosphatase to obtain inorganic phosphate and choline. During the next step choline is oxidized with choline oxidase to yield betaine, whereby H2O2 is generated. H2O2 reacts with Amplex Red Reagent in the presence of peroxidase (Horseradish peroxidase) in an 1:1 stochiometry and yields highly fluorescent resorufin. The generated fluorescence is measured in a reaction-dependent kinetic mode in order to enable subtraction of fluorescence signals of possible other fluorescent compounds that are not part of the reaction from total measured fluorescence.
1.5 μl of a standard solution or of the compounds of the invention are dissolved in 20 mM Hepes pH 7.2 with maximally 7.7% DMSO in individual concentrations. The resulting solution is pre-incubated together with 10 μl (16 ng) of highly purified recombinant autotaxin in a black 384-hole microtiter plate for 30 min at 22° C.
Thereafter, the reaction is started through the addition of 5 μl L-a-lysophosphatidyl-choline (LPC), whereby the final concentration of LPC is 75 μM. The mixture is incubated for 90 min. at 37° C. After the incubation Amplex Red Reagent, peroxidase (Horseradish peroxidase) and choline oxidase are added. The fluorescence is immediately measured at a wavelength of 612 nm with an excitation wavelength of 485 nm in a “Tecan Ultra multimode” fluorescence reader. The activity of autotaxin is indirectly calculated via the amount of detected generated H2O2.
For IC50 analysis, ten serial 1:3 dilutions starting at 30 μM for each compound were run in duplicates.
IC50 values were calculated on normalized data. For normalization, control wells were added to each assay plate and the signal of uninhibited control wells was set to 100%, whereas the signal inhibited by 500 μM C14 LPA, (Avanti Polar Lipids, Cat#857120P) was set to 0%. Curves were fitted and IC50 values calculated by the following model using proprietory analysis software: Y=Bottom+(100−Bottom)/(1+10^((Log IC50−X)*HillSlope))
Where X is the logarithm of concentration. Y is the response;
Y starts at Bottom and goes to Top with a sigmoid shape.
Protein: Recombinant autotaxin (baculoviral Hi5 expression)
Substrate: L-a-lysophosphatidyl choline (chicken egg); Avanti Polar Lipids #830071P
Standard: C14 LPA, Avanti Polar Lipids, Cat#857120P
Detection Reagent Amplex Red Reagent; Invitrogen #A12222; dissolved in 1.923 ml of DMSO peroxidase Type VI-A (horseradish), Sigma #P6782; dissolved in 7.45 ml of test buffer, Choline Oxidase; Sigma #C5896; dissolved in 2.47 ml test buffer
Detection Reagent Mix: 1:100 dilution of Amplex Red Regent in test buffer
Test buffer: 200 mM Tris-HCl, Merck, Cat #1.08219, pH 7.9; 0.1% BSA, lipid free, Roche Cat#775835

Row | Compound | % CTRL (1E−05)
1 | NC(=O)c1c(NC(=O)Cc2ccc(Cl)cc2F)sc2c1CCN(Cc1ccccn1)C2 [Compound 17, 2-[2-(4-Chloro-2-fluoro-phenyl)-acetylamino]-6-pyridin-2-ylmethyl-4,5,6,7-tetrahydro-thieno[2,3-c]pyridine-3-carboxylic acid amide] | 66%

same assay, conditions: ten serial 1:3 dilutions starting at 30 μM, duplicates; 75 μM LPC; values given as upper bounds

Row | Compound | IC50
2 | NC(=O)c1c(NC(=O)Cc2ccc(Cl)cc2F)sc2c1CCN(C(=O)Cc1ccncc1)C2 [Compound 23, 2-[2-(4-Chloro-2-fluoro-phenyl)-acetylamino]-6-(2-pyridin-4-yl-acetyl)-4,5,6,7-tetrahydro-thieno[2,3-c]pyridine-3-carboxylic acid amide] | < 10 µM
3 | NC(=O)c1c(NC(=O)Nc2ccc(C(F)(F)F)cc2)sc2c1CCN(C(=O)c1ccc3[nH]nnc3c1)C2 [Compound 3, 6-(1H-Benzotriazole-5-carbonyl)-2-[3-(4-trifluoromethyl-phenyl)-ureido]-4,5,6,7-tetrahydro-thieno[2,3-c]pyridine-3-carboxylic acid amide] | < 1 µM
4 | NC(=O)c1c(NC(=O)Cc2ccc(Cl)cc2)sc2c1CCN(C(=O)c1ccc3[nH]c(=O)oc3c1)C2 [Compound 14, 2-[2-(4-Chloro-phenyl)-acetylamino]-6-(2-oxo-2,3-dihydro-benzooxazole-6-carbonyl)-4,5,6,7-tetrahydro-thieno[2,3-c]pyridine-3-carboxylic acid amide] | < 1 µM
5 | NC(=O)c1c(NC(=O)Cc2ccc(Cl)cc2F)sc2c1CCN(C(=O)c1ccc3[nH]c(=O)oc3c1)C2 [Compound 10, 2-[2-(4-Chloro-2-fluoro-phenyl)-acetylamino]-6-(2-oxo-2,3-dihydro-benzooxazole-6-carbonyl)-4,5,6,7-tetrahydro-thieno[2,3-c]pyridine-3-carboxylic acid amide] | < 1 µM
6 | NC(=O)c1c(NC(=O)CCc2ccc(Cl)cc2)sc2c1CCN(C(=O)c1ccc3[nH]c(=O)oc3c1)C2 [Compound 6, 2-[3-(4-Chloro-phenyl)-propionylamino]-6-(2-oxo-2,3-dihydro-benzooxazole-6-carbonyl)-4,5,6,7-tetrahydro-thieno[2,3-c]pyridine-3-carboxylic acid amide] | < 1 µM
7 | O=C(NCCc1ccc(Cl)cc1)c1[nH]nc2c1CCN(C(=O)c1ccc3[nH]nnc3c1)C2 [Compound 39, 6-(1H-Benzotriazole-5-carbonyl)-4,5,6,7-tetrahydro-2H-pyrazolo[3,4-c]pyridine-3-carboxylic acid [2-(4-chloro-phenyl)-ethyl]-amide] | < 1 µM
8 | NC(=O)c1c(NC(=O)Cc2ccc(Cl)cc2F)sc2c1CCN(Cc1ccncc1)C2 [Compound 21, 2-[2-(4-Chloro-2-fluoro-phenyl)-acetylamino]-6-pyridin-4-ylmethyl-4,5,6,7-tetrahydro-thieno[2,3-c]pyridine-3-carboxylic acid amide] | < 10 µM
9 | O=C(Nc1ccc2[nH]nnc2c1)c1[nH]nc2c1CCN(C(=O)OCc1ccc(SC(F)(F)F)cc1)C2 [Compound 56, 3-(1H-Benzotriazol-5-ylcarbamoyl)-2,4,5,7-tetrahydro-pyrazolo[3,4-c]pyridine-6-carboxylic acid 4-trifluoromethylsulfanyl-benzyl ester] | < 1 µM
10 | O=C(NCc1ccc(OC(F)(F)F)cc1)c1[nH]nc2c1CCN(C(=O)c1ccc3[nH]nnc3c1)C2 [Compound 60, 6-(1H-Benzotriazole-5-carbonyl)-4,5,6,7-tetrahydro-2H-pyrazolo[3,4-c]pyridine-3-carboxylic acid 4-trifluoromethoxy-benzylamide] | < 30 µM
11 | NC(=O)c1c(NC(=O)Cc2cccc(Cl)c2)sc2c1CCN(C(=O)c1ccc3[nH]nnc3c1)C2 [Compound 11, 6-(1H-Benzotriazole-5-carbonyl)-2-[2-(3-chloro-phenyl)-acetylamino]-4,5,6,7-tetrahydro-thieno[2,3-c]pyridine-3-carboxylic acid amide] | < 1 µM
12 | O=C(Nc1ccc2[nH]nnc2c1)c1[nH]nc2c1CCN(C(=O)OCc1ccc(OC(F)(F)F)cc1)C2 [Compound 57, 3-(1H-Benzotriazol-5-ylcarbamoyl)-2,4,5,7-tetrahydro-pyrazolo[3,4-c]pyridine-6-carboxylic acid 4-trifluoromethoxy-benzyl ester] | < 10 µM
13 | O=C(Nc1ccc2[nH]nnc2c1)c1n[nH]c2c1CCN(C(=O)OCc1ccc(C(F)(F)F)cc1)C2 [Compound 50, 3-(1H-Benzotriazol-5-ylcarbamoyl)-1,4,5,7-tetrahydro-pyrazolo[3,4-c]pyridine-6-carboxylic acid 4-trifluoromethyl-benzyl ester] | < 1 µM
14 | COC(=O)c1c(NC(=O)Nc2ccc(Cl)cc2)sc2c1CCN(C(=O)c1ccc3[nH]nnc3c1)C2 [Compound 25, 6-(1H-Benzotriazole-5-carbonyl)-2-[3-(4-chloro-phenyl)-ureido]-4,5,6,7-tetrahydro-thieno[2,3-c]pyridine-3-carboxylic acid methyl ester] | < 30 µM
15 | NC(=O)c1c(NC(=O)Nc2ccc(Cl)cc2F)sc2c1CCN(C(=O)c1ccc3[nH]nnc3c1)C2 [Compound 15, 6-(1H-Benzotriazole-5-carbonyl)-2-[3-(4-chloro-2-fluoro-phenyl)-ureido]-4,5,6,7-tetrahydro-thieno[2,3-c]pyridine-3-carboxylic acid amide] | < 1 µM
16 | NC(=O)c1c(NC(=O)Cc2ccc(Cl)cc2F)sc2c1CCN(C(=O)c1ccc3[nH]nnc3c1)C2 [Compound 9, 6-(1H-Benzotriazole-5-carbonyl)-2-[2-(4-chloro-2-fluoro-phenyl)-acetylamino]-4,5,6,7-tetrahydro-thieno[2,3-c]pyridine-3-carboxylic acid amide] | < 1 µM
17 | O=C(Nc1ccc2[nH]nnc2c1)c1[nH]nc2c1CCN(C(=O)OCc1cc(C(F)(F)F)cc(C(F)(F)F)c1)C2 [Compound 53, 3-(1H-Benzotriazol-5-ylcarbamoyl)-2,4,5,7-tetrahydro-pyrazolo[3,4-c]pyridine-6-carboxylic acid 3,5-bis-trifluoromethyl-benzyl ester] | < 1 µM
18 | NC(=O)c1c(NC(=O)Cc2ccc(Cl)cc2F)sc2c1CCN(Cc1cccnc1)C2 [Compound 16, 2-[2-(4-Chloro-2-fluoro-phenyl)-acetylamino]-6-pyridin-3-ylmethyl-4,5,6,7-tetrahydro-thieno[2,3-c]pyridine-3-carboxylic acid amide] | < 30 µM
19 | O=C(NCCc1ccc(Cl)c(Cl)c1)c1[nH]nc2c1CCN(C(=O)c1ccc3[nH]nnc3c1)C2 [Compound 37, 6-(1H-Benzotriazole-5-carbonyl)-4,5,6,7-tetrahydro-2H-pyrazolo[3,4-c]pyridine-3-carboxylic acid [2-(3,4-dichloro-phenyl)-ethyl]-amide] | < 10 µM
20 | NC(=O)c1c(NC(=O)Nc2cc(Cl)cc(Cl)c2)sc2c1CCN(C(=O)c1ccc3[nH]nnc3c1)C2 [Compound 12, 6-(1H-Benzotriazole-5-carbonyl)-2-[3-(3,5-dichloro-phenyl)-ureido]-4,5,6,7-tetrahydro-thieno[2,3-c]pyridine-3-carboxylic acid amide] | < 10 µM
21 | COc1ccc(Cl)cc1CNC(=O)c1[nH]nc2c1CCN(C(=O)c1ccc3[nH]nnc3c1)C2 [Compound 45, 6-(1H-Benzotriazole-5-carbonyl)-4,5,6,7-tetrahydro-2H-pyrazolo[3,4-c]pyridine-3-carboxylic acid 5-chloro-2-methoxy-benzylamide] | < 10 µM
